The EC50 is the concentration that produces a half-maximal response.

In assay [1] the target is T1, ΔF508-CFTR (Homo sapiens, UniProt P13569, DEL508-508).
T1 construct: host or cells: CFBE41o-, doxycycline-inducible
The assay is described as follows: CFTR cell surface levels using HRP-tagged ΔF508-CFTR expressing CFBE cells, in the presence of a co-corrector. The format is cell-based. The following applies: HRP-tagged ΔF508-CFTR CFBE cells, in the presence of 3 μM co-corrector; for EC50: read-out: EC50. In a few lines: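 Chemiluminescent read-out of surface HRP (15 min, dark) after PBS washes. Activity is normalized as 100×(sample−DMSO)/(3 μM co-corrector alone−DMSO).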

Assay [2] concerns the target T1, ΔF508-CFTR. The assay is described as follows: CFTR cell surface levels using HRP-tagged ΔF508-CFTR expressing CFBE cells, intrinsic corrector capacity. Format: cell-based. Also on record: % Activation: concentration or dose not given beside the values. Particulars: HRP-tagged ΔF508-CFTR expressing CFBE41o- cells, compound alone (intrinsic corrector capacity), 20 hours at 33° C.; for EC50: read-out: EC50. In a few lines:
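Read-out: chemiluminescent HRP activity of ECL4-HRP-tagged ΔF508-CFTR at the cell surface, 15 min substrate in dark. Normalized as 100×(sample−DMSO)/(positive control−DMSO).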

T1 sequence (P13569 with tags, fused parts or gaps DEL508-508): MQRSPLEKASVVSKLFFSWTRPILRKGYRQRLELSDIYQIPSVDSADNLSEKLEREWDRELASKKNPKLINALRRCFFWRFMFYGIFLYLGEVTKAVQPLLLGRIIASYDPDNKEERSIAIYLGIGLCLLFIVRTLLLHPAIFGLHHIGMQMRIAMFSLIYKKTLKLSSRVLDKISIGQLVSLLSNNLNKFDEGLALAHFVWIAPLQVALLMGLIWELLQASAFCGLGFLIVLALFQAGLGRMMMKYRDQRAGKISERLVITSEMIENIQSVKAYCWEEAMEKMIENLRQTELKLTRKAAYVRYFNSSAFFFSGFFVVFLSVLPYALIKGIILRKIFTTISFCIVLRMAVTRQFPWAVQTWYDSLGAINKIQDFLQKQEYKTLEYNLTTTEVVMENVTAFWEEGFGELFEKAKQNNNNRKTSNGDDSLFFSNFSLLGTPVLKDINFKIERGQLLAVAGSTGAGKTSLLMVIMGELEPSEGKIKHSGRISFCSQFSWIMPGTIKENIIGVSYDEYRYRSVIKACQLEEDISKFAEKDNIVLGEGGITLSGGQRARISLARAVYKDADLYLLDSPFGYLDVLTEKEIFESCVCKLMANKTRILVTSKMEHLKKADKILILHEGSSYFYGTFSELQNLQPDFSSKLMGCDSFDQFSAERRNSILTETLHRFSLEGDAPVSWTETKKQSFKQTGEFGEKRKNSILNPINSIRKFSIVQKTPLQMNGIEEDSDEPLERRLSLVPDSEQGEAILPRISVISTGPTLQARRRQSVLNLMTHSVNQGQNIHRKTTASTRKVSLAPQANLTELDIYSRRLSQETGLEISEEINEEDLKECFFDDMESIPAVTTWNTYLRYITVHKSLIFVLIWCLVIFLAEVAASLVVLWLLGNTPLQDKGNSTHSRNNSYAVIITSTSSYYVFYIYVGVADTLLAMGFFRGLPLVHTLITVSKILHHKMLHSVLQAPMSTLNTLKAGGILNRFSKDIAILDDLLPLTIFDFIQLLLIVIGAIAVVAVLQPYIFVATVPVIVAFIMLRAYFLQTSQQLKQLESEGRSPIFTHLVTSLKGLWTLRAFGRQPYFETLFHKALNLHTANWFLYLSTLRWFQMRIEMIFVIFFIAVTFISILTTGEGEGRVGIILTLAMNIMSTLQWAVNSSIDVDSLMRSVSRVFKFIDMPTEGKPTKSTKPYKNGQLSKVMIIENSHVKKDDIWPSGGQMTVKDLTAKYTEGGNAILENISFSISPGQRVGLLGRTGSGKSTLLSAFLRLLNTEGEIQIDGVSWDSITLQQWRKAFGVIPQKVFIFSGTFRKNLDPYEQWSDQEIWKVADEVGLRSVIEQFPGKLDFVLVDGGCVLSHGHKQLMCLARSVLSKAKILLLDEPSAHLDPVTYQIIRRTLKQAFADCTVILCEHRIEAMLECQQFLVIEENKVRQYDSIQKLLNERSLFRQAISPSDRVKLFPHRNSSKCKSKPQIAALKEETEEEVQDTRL

Take `CC(C)c1nn(C2CCCCC2)c2nc(C(=O)NS(C)(=O)=O)cc(-c3ccc(N4CCC(C)(C#N)CC4)nc3)c12` [Compound 98, 4-[6-(4-cyano-4-methylpiperidin-1-yl)pyridin-3-yl]-1-cyclohexyl-N-(methanesulfonyl)-3-(propan-2-yl)-1H-pyrazolo[3,4-b]pyridine-6-carboxamide]: the “% Activation” value turned out to be 360.15% at ΔF508-CFTR [1] and 154% at ΔF508-CFTR [2]. In addition, the EC50 amounted to 393 nM on ΔF508-CFTR [1] and 556 nM at ΔF508-CFTR [2].
Consider `CC(C)c1nn(-c2cccc(N3CCOCC3)c2)c2nc(C(=O)NS(C)(=O)=O)cc(-c3cnc(N4CCC(C#N)CC4)nc3)c12` [Compound 99, 4-[2-(4-cyanopiperidin-1-yl)pyrimidin-5-yl]-N-(methanesulfonyl)-1-[3-(morpholin-4-yl)phenyl]-3-(propan-2-yl)-1H-pyrazolo[3,4-b]pyridine-6-carboxamide], for which the “% Activation” value at ΔF508-CFTR [1] is 601.15%; on ΔF508-CFTR [2] it was 414.8%. In addition, the figures for the EC50 at ΔF508-CFTR [1] and at ΔF508-CFTR [2] were 337 nM and 410 nM, respectively.
With `Cc1nn(-c2ccccc2)c2nc(C(=O)NS(C)(=O)=O)cc(-c3ccc(N4CCC(N(C)C)C4)cc3)c12` (stereo not shown) [Compound 100, 4-{4-[3-(dimethylamino)pyrrolidin-1-yl]phenyl}-N-(methanesulfonyl)-3-methyl-1-phenyl-1H-pyrazolo[3,4-b]pyridine-6-carboxamide], at ΔF508-CFTR [1], the “% Activation” value is listed as 340.6% and the EC50 was 3220 nM. For the same compound, on ΔF508-CFTR [2], the “% Activation” value was 113% and the EC50 turned out to be 2480 nM.
With `Cc1cccc(-n2nc(C(C)C)c3c(N4CCCCC4)cc(C(=O)NS(C)(=O)=O)nc32)c1` [Compound 101, N-(methanesulfonyl)-1-(3-methylphenyl)-4-(piperidin-1-yl)-3-(propan-2-yl)-1H-pyrazolo[3,4-b]pyridine-6-carboxamide], at ΔF508-CFTR [1], the “% Activation” value amounted to 455.4% and the 50% effective concentration (EC50) is 409 nM. On ΔF508-CFTR [2], the “% Activation” value is reported as 254.85% and the half-maximal effective concentration (EC50) turned out to be 839 nM.
Consider `CCS(=O)(=O)NC(=O)c1cc(N2CCCCC2)c2c(C(C)C)nn(-c3cccc(C)c3)c2n1` [Compound 102, N-(ethanesulfonyl)-1-(3-methylphenyl)-4-(piperidin-1-yl)-3-(propan-2-yl)-1H-pyrazolo[3,4-b]pyridine-6-carboxamide], for which, on ΔF508-CFTR [1], the “% Activation” value was 458.75% and the half-maximal effective concentration (EC50) stood at 537 nM. Further, at ΔF508-CFTR [2], the “% Activation” value amounted to 233.9% and the EC50 was found to be 897 nM.
Taken in the same sequence, the figures for `CS(=O)(=O)NC(=O)c1cc(-c2ccc(N3CCC(C#N)CC3)cc2)c2c(C3CCC3)nn(C3CCCCC3)c2n1` [Compound 103, 4-[4-(4-cyanopiperidin-1-yl)phenyl]-3-cyclobutyl-1-cyclohexyl-N-(methanesulfonyl)-1H-pyrazolo[3,4-b]pyridine-6-carboxamide] were 501.03%, 409 nM, 263.8% and 536 nM.
Turning to `CC(C)c1nn(-c2cccc(N3CC(O)C3)c2)c2nc(C(=O)NS(C)(=O)=O)cc(-c3ccc(N4CCOCC4)cc3)c12` [Compound 105, 1-[3-(3-hydroxyazetidin-1-yl)phenyl]-N-(methanesulfonyl)-4-[4-(morpholin-4-yl)phenyl]-3-(propan-2-yl)-1H-pyrazolo[3,4-b]pyridine-6-carboxamide], the “% Activation” value was 457.85% on ΔF508-CFTR [1] and 258.1% on ΔF508-CFTR [2]. Moreover, the EC50 at ΔF508-CFTR [1] came to 699 nM; at ΔF508-CFTR [2] it was 908 nM.
As to `COC1CCN(c2ccc(-c3cc(C(=O)NS(C)(=O)=O)nc4c3c(C(C)C)nn4C3CCCCC3)cn2)C1` (stereo not shown) [Compound 106, 1-cyclohexyl-N-(methanesulfonyl)-4-[6-(3-methoxypyrrolidin-1-yl)pyridin-3-yl]-3-(propan-2-yl)-1H-pyrazolo[3,4-b]pyridine-6-carboxamide], at ΔF508-CFTR [1], the “% Activation” value was found to be 348.1% and the EC50 is 394 nM. For the same compound, on ΔF508-CFTR [2], the “% Activation” value worked out at 162.75% and the EC50 worked out at 526 nM.
For the compound `COC(=O)N1CC(c2nn(-c3cc(F)cc(F)c3)c3nc(C(=O)NS(C)(=O)=O)cc(-c4ccc(NC(C)=O)cc4)c23)C1` [Compound 107, methyl 3-{4-(4-acetamidophenyl)-1-(3,5-difluorophenyl)-6-[(methanesulfonyl)carbamoyl]-1H-pyrazolo[3,4-b]pyridin-3-yl}azetidine-1-carboxylate], at ΔF508-CFTR [1], the “% Activation” value is 219.4% and the EC50 was 3340 nM. For the same compound, on ΔF508-CFTR [2], the “% Activation” value was determined as 64.54% and the EC50 stood at 3340 nM.
Turning to `CC(C)c1nn(C2CCCCC2)c2nc(C(=O)NS(C)(=O)=O)cc(-c3ccc(N4CCCC(F)C4)nc3)c12` (stereo not shown) [Compound 108, 1-cyclohexyl-4-[6-(3-fluoropiperidin-1-yl)pyridin-3-yl]-N-(methanesulfonyl)-3-(propan-2-yl)-1H-pyrazolo[3,4-b]pyridine-6-carboxamide], the results for the “% Activation” value on ΔF508-CFTR [1] and at ΔF508-CFTR [2] were 428.3% and 218.05%, respectively. Moreover, the EC50 at ΔF508-CFTR [1] amounted to 509 nM; on ΔF508-CFTR [2], 561 nM.
For `COCCN(C)c1ccc(-c2cc(C(=O)NS(C)(=O)=O)nc3c2c(C(C)C)nn3-c2cccc(N3CCCC3)c2)cc1` [Compound 109, N-(methanesulfonyl)-4-{4-[(2-methoxyethyl)(methyl)amino]phenyl}-3-(propan-2-yl)-1-[3-(pyrrolidin-1-yl)phenyl]-1H-pyrazolo[3,4-b]pyridine-6-carboxamide], in that order: 571.3%, 381.05%, 634 nM and 613 nM.
Taken in the same sequence, the figures for `CN(c1ccc(-c2cc(C(=O)NS(C)(=O)=O)nc3c2c(C2CCC2)nn3-c2cccc(N3CCCC3)c2)cc1)C1CCOCC1` [Compound 111, 3-cyclobutyl-N-(methanesulfonyl)-4-{4-[methyl(oxan-4-yl)amino]phenyl}-1-[3-(pyrrolidin-1-yl)phenyl]-1H-pyrazolo[3,4-b]pyridine-6-carboxamide] were 596.8%, 411.63%, 378 nM and 444 nM.
In the case of `CCS(=O)(=O)NC(=O)c1cc(-c2cnc(N3CCOCC3)nc2)c2c(C(C)C)nn(-c3ccccc3)c2n1` [Compound 112, N-(ethanesulfonyl)-4-[2-(morpholin-4-yl)pyrimidin-5-yl]-1-phenyl-3-(propan-2-yl)-1H-pyrazolo[3,4-b]pyridine-6-carboxamide], on ΔF508-CFTR [1], the “% Activation” value is on record as 472.8% and the EC50 stood at 884 nM. Moreover, on ΔF508-CFTR [2], the “% Activation” value is 254.85% and the EC50 was 699 nM.
As for `CCS(=O)(=O)NC(=O)c1cc(-c2ccc(OC)cc2)c2c(C)nn(-c3ccc(C)c(Cl)c3)c2n1` [Compound 114, 1-(3-chloro-4-methylphenyl)-N-(ethanesulfonyl)-4-(4-methoxyphenyl)-3-methyl-1H-pyrazolo[3,4-b]pyridine-6-carboxamide], at ΔF508-CFTR [1], the “% Activation” value is given as 277.45% and the half-maximal effective concentration (EC50) came to 952 nM. At ΔF508-CFTR [2], the “% Activation” value was determined as 130.85% and the EC50 was found to be 1140 nM.
Regarding `CCS(=O)(=O)NC(=O)c1cc(-c2ccc(N3CCOCC3)cc2)c2c(C)nn(-c3cc(C)cc(C)c3)c2n1` [Compound 115, 1-(3,5-dimethylphenyl)-N-(ethanesulfonyl)-3-methyl-4-[4-(morpholin-4-yl)phenyl]-1H-pyrazolo[3,4-b]pyridine-6-carboxamide], the “% Activation” value at ΔF508-CFTR [1] is listed as 389.6%; at ΔF508-CFTR [2], 216.05%. Besides, the concentration for a half-maximal effect (EC50) at ΔF508-CFTR [1] came to 665 nM; on ΔF508-CFTR [2], 1050 nM.
Taken in the same sequence, the figures for `CCS(=O)(=O)NC(=O)c1cc(-c2ccc(N3CCOCC3)cc2)c2c(C)nn(-c3ccc(F)c(F)c3)c2n1` [Compound 116, 1-(3,4-difluorophenyl)-N-(ethanesulfonyl)-3-methyl-4-[4-(morpholin-4-yl)phenyl]-1H-pyrazolo[3,4-b]pyridine-6-carboxamide] were 438.37%, 295.57%, 630 nM and 957 nM.
For `CCS(=O)(=O)NC(=O)c1cc(N2CCC(OC)CC2)c2c(C(C)C)nn(-c3cccc(C)c3)c2n1` [Compound 118, N-(ethanesulfonyl)-4-(4-methoxypiperidin-1-yl)-1-(3-methylphenyl)-3-(propan-2-yl)-1H-pyrazolo[3,4-b]pyridine-6-carboxamide], in that order: 469%, 289.93%, 280 nM and 398 nM.
For `COCCN(C)c1ncc(-c2cc(C(=O)NS(C)(=O)=O)nc3c2c(C(C)C)nn3C2CCCCC2)cn1` [Compound 120, 1-cyclohexyl-N-(methanesulfonyl)-4-{2-[(2-methoxyethyl)(methyl)amino]pyrimidin-5-yl}-3-(propan-2-yl)-1H-pyrazolo[3,4-b]pyridine-6-carboxamide], in that order: 351.03%, 169.2%, 348 nM and 554 nM.
With `CC(C)c1nn(C2CCCCC2)c2nc(C(=O)NS(C)(=O)=O)cc(-c3ccc(N(C)C4CCOC4)nc3)c12` (stereo not shown) [Compound 122, 1-cyclohexyl-N-(methanesulfonyl)-4-{6-[methyl(oxolan-3-yl)amino]pyridin-3-yl}-3-(propan-2-yl)-1H-pyrazolo[3,4-b]pyridine-6-carboxamide], at ΔF508-CFTR [1], the “% Activation” value came to 405.9% and the concentration for a half-maximal effect (EC50) stood at 281 nM. At ΔF508-CFTR [2], the “% Activation” value worked out at 184.53% and the concentration for a half-maximal effect (EC50) was determined as 470 nM.

For the origin of these results see patent US10259810B2, “N-sulfonylated pyrazolo[3,4-b]pyridin-6-carboxamides and method of use” (AbbVie S.à.r.l., priority 2015, dated 2019).
